From patent publication US11865125B2, “APKC inhibitors and methods of treating a neurodegenerative disease or disorder” (UNIVERSITY OF SOUTH FLORIDA, priority 2016, dated 2024)
“Also recorded” adds a separate entry of the source.

What was measured:
70 kDa PKC-λ/ι = target: T1, 70 kDa PKC-λ/ι (Mus musculus, UniProt Q62074); assay: brain aPKC (PKC-λ/ι) phosphorylation/activity in mice; type: in vivo
T1 construct: insulin-sensitive 70 kDa PKC-λ/ι in brains of Het-MλKO mice; from tissue; host or cells: mouse brain homogenate
T1 sequence (Q62074 1-595): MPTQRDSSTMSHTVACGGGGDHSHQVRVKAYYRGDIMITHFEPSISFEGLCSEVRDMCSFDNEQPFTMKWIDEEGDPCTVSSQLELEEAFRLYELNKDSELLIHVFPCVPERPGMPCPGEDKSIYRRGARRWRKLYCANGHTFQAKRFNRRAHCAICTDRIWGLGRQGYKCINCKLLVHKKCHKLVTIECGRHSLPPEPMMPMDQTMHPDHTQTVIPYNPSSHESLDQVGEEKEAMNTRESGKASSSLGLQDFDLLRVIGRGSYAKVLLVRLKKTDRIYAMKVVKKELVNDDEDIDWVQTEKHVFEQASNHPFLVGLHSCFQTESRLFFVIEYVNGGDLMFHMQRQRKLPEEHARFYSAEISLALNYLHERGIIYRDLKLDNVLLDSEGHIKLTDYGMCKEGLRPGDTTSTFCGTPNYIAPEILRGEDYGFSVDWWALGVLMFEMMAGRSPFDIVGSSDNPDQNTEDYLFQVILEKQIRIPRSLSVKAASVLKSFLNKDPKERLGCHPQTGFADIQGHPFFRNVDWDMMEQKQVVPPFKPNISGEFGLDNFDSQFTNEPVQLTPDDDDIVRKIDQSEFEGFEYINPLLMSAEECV
Description: (§1) Mouse Studies. Brain samples were obtained from normal and insulin-resistant mice and monkeys used previously, and includes mice originally used in studies of insulin signaling and resistance in liver: (a) 4-6 month old C57Bl/6 mice used in studies of high-fat-feeding [USF Vivarium] [6]; 4-6 month-old male C57Bl/6 ob/ob and lean ob+ mice (Jackson Labs, Bar Harbor, Maine); and (c) 10-12 month-old C57Bl/6 Het-MλKO mice [USF Vivarium] [8]. […] Where indicated normal mice were given a single SC injection of saline or saline containing 1.5 mg/kg ICAPP to follow time-related alterations in brain signaling factors. Where indicated, mice were treated intraperitoneally (IP) with insulin (1 U/kg body weight) or vehicle 15-min before euthanization by administration of Xylazine/Ketamine, followed by whole body perfusion with phosphate-buffered saline and rapid removal of brain and other tissues.
(§2) Tissue Preparations. As described, mouse brains were hemisected sagittally, and one-half was frozen in liquid N2, stored at −80° C., and samples thereof were homogenized in buffer containing 0.25M sucrose, 20 mM Tris/HCl (pH, 7.5), 2 mmol/l EGTA, 2 mM EDTA, 1 mM phenlysulfonoylfluoride (PMSF), 20 μg/ml leupeptin, 10 μg/ml aprotinin, 2 mM Na4P2O7, 2 mM Na3VO4, 2 mM NaF, and 1 μM microcystin, and then supplemented with 1% TritonX-100, 0.6% Nonidet and 150 mM NaCl.
(§3) Western Analyses. As described, Western analyses were conducted with rabbit antisera or mouse monoclonal antibodies (mMab), using: anti-aPKC (Santa Cruz Biotechnologies, Santa Cruz, CA); anti-phospho-threonine-560/555-PKC-ζ/λ/ι (Invitrogen, Carlsbad, CA); anti-p-serine-256-FoxO1 and anti-FoxO1 (Abnova, Walnut, CA); anti-Akt (mMab), anti-phospho-serine-473-Akt, anti-phospho-serine-9-GSK3P anti-GSK313, anti-phospho-serine-253-FoxO3a, anti-FoxO3a, anti-phospho-serine-256-FoxO1, anti-phospho-serine-193-FoxO4; anti-FoxO1, anti-phospho-serine-2448-mTOR, anti-mTOR, anti-β-amyloid (anti-5-10 kDa-Aβ1-40/42) and anti-amyloid precursor protein (anti-120 kDa-APP) (Cell Signaling Technologies, Danvers, MA); and anti-phospho-serine-202-tau, anti-phospho-threonine-231-tau (Gene Tex, Irvine, CA). Samples from experimental groups were compared on the same blots, and routinely checked with loading controls. Note that: insulin-sensitive 70 kDa aPKC is largely PKC-ζ in mouse brain and orthologous PKC-ι (98% aa homology) in monkey and other primate brains; brain PKC-ζ exists largely as a 50 kDa moiety that, lacking a regulatory domain, is constitutively-active and unresponsive to insulin.
(§4) Where indicated, mice were randomly treated with insulin (1 unit/kg/bw i.p.) 15 min before being euthanized by administration of xylazine/ketamine, followed by whole-body perfusion with PBS and rapid removal of brain and other tissues.

[1] = test system: Akt substrates FOXO1, FOXO3a, GSK3β, and mTOR; assay: phosphorylation of Akt substrates in mouse brain; type: in vivo; settings: Het-MλKO mice, s.c. once daily for 8 days (ICAPP 0.4 mg/kg, ATM 60 mg/kg)
Description: as §1, §2
Western Analyses. […]

Aβ1-40/42 = assay: brain Aβ1-40/42 peptide levels in mice; type: in vivo, mouse
Description: as §1, §2, §3, §4

recombinant PKC-ι = target: T2, recombinant PKC-ι (Homo sapiens, UniProt P41743); settings: cited from earlier work
T2 sequence (P41743 1-596): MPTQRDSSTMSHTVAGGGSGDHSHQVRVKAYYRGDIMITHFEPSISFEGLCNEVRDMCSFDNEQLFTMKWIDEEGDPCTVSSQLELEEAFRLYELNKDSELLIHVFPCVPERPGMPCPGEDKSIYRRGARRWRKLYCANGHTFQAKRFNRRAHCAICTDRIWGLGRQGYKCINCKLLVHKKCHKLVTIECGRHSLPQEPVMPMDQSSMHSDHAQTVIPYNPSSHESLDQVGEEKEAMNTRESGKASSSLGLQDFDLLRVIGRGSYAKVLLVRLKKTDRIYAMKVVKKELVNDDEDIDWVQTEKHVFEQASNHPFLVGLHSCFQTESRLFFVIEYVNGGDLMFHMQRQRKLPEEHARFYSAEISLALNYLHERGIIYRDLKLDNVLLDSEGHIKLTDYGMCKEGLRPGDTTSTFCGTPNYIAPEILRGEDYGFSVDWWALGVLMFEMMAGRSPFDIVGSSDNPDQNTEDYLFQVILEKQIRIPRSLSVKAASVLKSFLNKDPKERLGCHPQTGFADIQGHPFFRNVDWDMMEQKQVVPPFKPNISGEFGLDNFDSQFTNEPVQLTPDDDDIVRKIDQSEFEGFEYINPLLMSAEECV

[2] = Het-MλKO mice, s.c. once daily for 8 days (ICAPP 0.4 mg/kg, ATM 60 mg/kg)
[3] = Het-MλKO mice, s.c. once daily for 8 days (ICAPP 0.4 mg/kg, ATM 60 mg/kg), insulin 1 U/kg i.p. 15 min
[4] = normal mice, single s.c. dose of ICAPP 1.5 mg/kg, insulin 1 U/kg i.p. 15 min before killing

SMILES: NC(=O)c1ncn([C@@H]2C[C@H](COP(=O)(O)O)[C@@H](O)[C@H]2O)c1N [ICAPP]
- resting/basal brain aPKC (PKC-λ/ι) activity (70 kDa PKC-λ/ι; [2]): diminished; also recorded: reductions of resting/basal activities of brain Akt and aPKC, comparable to those seen with ATM treatment
- acute insulin activation of brain aPKC (PKC-λ/ι) (70 kDa PKC-λ/ι; [3]): blocked the ability of insulin to activate PKC-λ/ι; also recorded: abrogated
- insulin-dependent brain PKC-λ/ι (aPKC) activity (70 kDa PKC-λ/ι; [4]): time-related, well-correlated decreases; also recorded: blocked acute effects of insulin
- resting/basal phosphorylation of Akt substrates in brain [1]: diminished
- acute insulin-stimulated phosphorylation of Akt substrates in brain ([1]; insulin 1 U/kg i.p. 15 min): restored ability of insulin; also recorded: fully able
- resting/basal brain Aβ1-40/42 peptide levels (Aβ1-40/42; [2]): returned to normal
- acute insulin-induced increase in brain Aβ1-40/42 levels (Aβ1-40/42; [3]): comparable loss in the ability of insulin to acutely increase Aβ1-40/42 levels; also recorded: abrogated
- insulin-dependent brain Aβ1-40/42 peptide levels (Aβ1-40/42; [4]): time-related, well-correlated decreases; also recorded: blocked acute effects of insulin
- inhibition of recombinant PKC-ι (recombinant PKC-ι): preferentially inhibit recombinant PKC-ι
- IC50 (recombinant PKC-ι; previously seen, stated as similar, read-out: IC50, inhibition of recombinant PKC-λ/ι): 1 to 10 nM
